Test results: patent US6689574B1, “Assays for nuclear receptor agonists and antagonists using fluorescence resonance energy transfer” (Merck & Co., Inc., priority 1997, dated 2004)

Key:
Assay type in all cases: biochemical
PPARγ = molecular target: T1, PPARγ (Homo sapiens, UniProt P37231); experiment: Titration of known PPARγ agonists in the CBP/PPARγ FRET assay (FIG. 5); conditions: derived from FIG. 5; agonist-induced CBP-PPARγ FRET
T1 construct: amino acids 176-478 of PPARγ1; GST (N); made in house; host or cells: E. coli (DH5α)
T1 sequence (P37231 204-505 limits assumed): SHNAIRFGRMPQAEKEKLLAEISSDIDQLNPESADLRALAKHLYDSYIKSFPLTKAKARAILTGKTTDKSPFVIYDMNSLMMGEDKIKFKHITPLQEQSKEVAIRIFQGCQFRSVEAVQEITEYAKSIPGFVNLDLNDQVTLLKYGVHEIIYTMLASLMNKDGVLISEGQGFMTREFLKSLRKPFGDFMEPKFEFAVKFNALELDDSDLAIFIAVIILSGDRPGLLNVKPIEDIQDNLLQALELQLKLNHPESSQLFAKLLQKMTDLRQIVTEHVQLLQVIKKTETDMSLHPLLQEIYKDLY
T1 sequence (Q92793 1-453 partner limits assumed): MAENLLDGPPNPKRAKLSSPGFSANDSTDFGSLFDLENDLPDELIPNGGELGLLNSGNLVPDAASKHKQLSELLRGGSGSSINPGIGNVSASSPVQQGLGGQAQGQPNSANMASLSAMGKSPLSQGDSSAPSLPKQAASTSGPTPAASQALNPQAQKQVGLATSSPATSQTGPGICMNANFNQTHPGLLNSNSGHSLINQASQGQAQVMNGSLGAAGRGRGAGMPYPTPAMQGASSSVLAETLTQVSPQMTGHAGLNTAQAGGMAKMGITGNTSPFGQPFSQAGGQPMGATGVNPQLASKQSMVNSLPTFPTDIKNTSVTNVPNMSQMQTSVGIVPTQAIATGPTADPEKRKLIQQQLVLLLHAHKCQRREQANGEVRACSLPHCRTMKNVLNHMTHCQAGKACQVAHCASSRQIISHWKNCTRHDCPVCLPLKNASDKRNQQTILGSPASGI

PPARγ1LBD [1] = molecular target: T2, PPARγ1LBD (Homo sapiens, UniProt P37231); experiment: FRET assay, Eu3+K-labeled hCBP1-113 with biotin-hPPARγ1LBD and SA-XL665 (experiments 1 and 2); parameters: amino acids 176-478 of PPARγ1; GST (N, cleaved yes); made in house; host or cells: E. coli (DH5α); conditions: 1 μM AD5075, ratio 665 nm/620 nm
T2 sequence (P37231 204-505): as the sequence (P37231 204-505 limits assumed) above
T2 sequence (Q92793 1-113 partner): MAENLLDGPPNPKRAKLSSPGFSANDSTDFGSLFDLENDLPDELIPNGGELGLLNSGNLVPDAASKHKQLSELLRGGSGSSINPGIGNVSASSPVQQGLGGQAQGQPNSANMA
Text: Experiments were first conducted using hCBP1-113 and hPPARγ1LBD. Purified hPPARγ1LBD was biotinylated with Sulfo-NHS-LC-Biotin (PIERCE) to a biotin:hPPARγ1LBD ratio of 3:1 according to the procedure provided by PIERCE. Purified hCBP1-113 was directly labeled with europium cryptate (Eu3+K) by the method illustrated in FIG. 1.
Thus, this experimental format made use of the fluorescent reagent pair europium cryptate (Eu3+K), which acted as donor, and XL665, which acted as acceptor. hCBP1-113 was directly labeled with europium cryptate (Eu3+K); hPPARγ12LBD was indirectly labeled with XL665 by means of a biotin-streptavidin link. The emission maximum of europium cryptate (Eu3+K) overlaps with the absorption maximum of XL665. Therefore, when europium cryptate (Eu3+K) and XL665 are in close proximity, and the sample is illuminated with light at 337 nm (the absorption maximum of europium cryptate (Eu3+K)), FRET can occur between europium cryptate (Eu3+K) and XL665. This FRET manifests itself as increased emission at 665 nm by XL665. […] When agonist is bound to hPPARγ1LBD, a specific interaction occurs between hPPARγ1LBD and hCBP1-113, thus bringing europium cryptate (Eu3+K) and XL665 into close enough proximity for FRET to occur. […]

PPARγ1LBD [2] = molecular target: T2, PPARγ1LBD; experiment: FRET assay, GST-hCBP1-113 with Eu3+K-labeled anti-GST antibody, biotin-hPPARγ1LBD and SA-XL665 (experiment 3); parameters: amino acids 176-478 of PPARγ1; GST (N, cleaved yes); made in house; host or cells: E. coli (DH5α); conditions: HEPES + 0.05% NP40, 1 μM AD5075, ratio 665 nm/620 nm
Procedure: In order to get an even better signal-noise ratio, the above-described format was modified slightly for experiment 3. In experiment 3, SA-XL665 (500 nM), biotin-labeled hPPARγ1LBD (100 nM), GST-hCBP1-113, and Eu3+K labeled anti-GST antibody (2.5 μl) were incubated in the presence or absence of AD5075 (1 μM) in HEPES buffer containing 0.05% NP40. A two-fold signal- noise ratio was obtained.
The anti-GST antibody was a goat antibody to GST from Pharmacia (catalogue number 27-4577-01) that was labeled with Eu3+K according to the procedure summarized below. [drawing 2]

GST-hPPARγ1LBD = molecular target: T3, GST-hPPARγ1LBD (Homo sapiens, UniProt P37231); experiment: FRET assay, biotin-hCBP1-453 with SA-XL665, GST-hPPARγ1LBD and Eu3+K-labeled anti-GST antibody (experiment 4); conditions: HEPES + 0.05% CHAPS, 1 μM AD5075, ratio 665 nm/620 nm
T3 construct: amino acids 176-478 of PPARγ1; made in house; host or cells: E. coli (DH5α)
T3 sequence (P37231 204-505): as the sequence (P37231 204-505 limits assumed) above
T3 sequence (Q92793 1-453 partner): as the sequence (Q92793 1-453 partner limits assumed) above
Procedure: To further improve the signal to noise ratio, a series of experiments were conducted. Experiment 4 of Table 1 exemplifies 5 results obtained from those efforts. cDNA encoding a longer fragment of hCBP was cloned and expressed to get hCBP1-453. hCBP1-453 was biotinylated. Biotin-labeled hCBP1-453 (25 nM), SA-XL665 (100 nM), GST-hPPARγ1LBD (1 nM), and Eu3+K-labeled anti-GST antibody (2 nM) were mixed together in the presence or absence of 1 μM AD5075. […] A three- to four-fold signal-noise ratio was obtained.

- EC50 (PPARγ): 8 nM
- Emission ratio with AD5075 (PPARγ1LBD [1]; Experiment 1, PBS buffer): 1134
- Emission ratio with AD5075 (PPARγ1LBD [1]; Experiment 2, HEPES + 0.05% NP40): 967
- Emission ratio with AD5075 (PPARγ1LBD [2]): 1078
- Emission ratio with AD5075 (GST-hPPARγ1LBD): 1883
Structure (SMILES): Cc1oc(-c2ccccc2)nc1C(O)COc1ccc(CC2SC(=O)NC2=O)cc1 (centres unmarked) [AD5075]
